What was measured:
[1] = target: T1, β-amyloid peptide (his-Aβ 1-40) with Aβ 1-42 fibrils (Homo sapiens, UniProt P05067); assay: Colloid drug screen for aggregate inhibition at high peptide concentration, with pre-formed Aβ 1-42 fibrils; assay type: biochemical; settings: 20 uM his-Aβ 1-40 + 1 uM Aβ 1-42 fibrils; 5 ul drug (2.9 mg/ml in DMSO) in 100 ul; 37° C. 4-6 hours; microscope 40×
T1 construct: 10 ul of a 200 uM solution of his-Aβ 1-40 peptide in phosphate buffer; 3.3 ul of 30 uM Aβ 1-42 fibrils (non-histidine-tagged) was added to each well
T1 sequence (P05067 672-713): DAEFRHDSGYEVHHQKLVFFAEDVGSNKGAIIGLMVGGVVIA
T1 sequence (P05067 672-711): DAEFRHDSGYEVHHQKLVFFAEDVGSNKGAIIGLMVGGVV
Excerpt: (§1) Compositions were identified that inhibit aggregation characteristic of neurodegenerative disease at high B-amyloid peptide concentration, low peptide concentration, and in some cases both. Compositions that inhibited aggregation at high concentration inhibited formation where an assay included B-amyloid peptide and at least some amount of pre-formed aggregate characteristic of neurodegenerative disease. Compositions that inhibited aggregation at low concentration inhibited […] in the presence of β-amyloid peptide but in the absence of any pre-formed aggregate characteristic of neurodegenerative disease.
In another drug screening method, drugs were incubated with Aβ 1-42 fibrils, which will convert normal Aβ 1-40 peptides to the fibrillar form at a faster rate than Aβ 1-40 fibrils. Histidine-tagged Aβ 1-40 peptides were then added to the wells, along with colloids derivatized with self-assembled monolayers containing NTA-Ni for the attachment of histidine-tagged Aβ 1-40. It was previously shown that Aβ 1-42 fibrils will cause accelerated conversion of Aβ 1-40, which will then incorporate into large aggregates structures. These aggregates are colored red by the colloids attached to the peptides, and are easily visible under the microscope.
5 ul of each drug in DMSO was added to the wells of a 96-well ELISA plate, which contained 52 ul of phosphate buffer. […]

[2] = target: T2, β-amyloid peptide (his-Aβ 1-40) (Homo sapiens, UniProt P05067); assay: Colloid colorimetric drug screen for fibril inhibition at low peptide concentration, no pre-formed aggregate; assay type: biochemical; settings: 5 uM his-Aβ 1-40, no pre-formed aggregate; 5 ul drug (2.9 mg/ml in DMSO); 37C 1.5-2 hours; well stays pink vs blue
T2 construct: 10 ul of a 50 uM solution of his-Aβ 1-40 peptide in phosphate buffer
T2 sequence (P05067 672-711): as above
Excerpt: as §1
In one drug screening method, histidine-tagged AB 1-40 peptides were immobilized on colloids derivatized with self-assembled monolayers containing NTA-Ni for the attachment of histidine-tagged peptides. It has been previously shown that the Aβ peptides, if not inhibited by a drug, will spontaneously convert to the fibrillar form and aggregate, pulling the colloids close together, and causing a color change from pink to blue.
Drugs from the Sigma-RBI Library of Pharmacologically Active Compounds (LOPAC; #SC001, 1999) were dissolved in dimethyl sulphoxide (DMSO) to a final concentration of 2.9 mg/ml. […]

[3] = test system: Amyloid Precursor Protein (APP) in HEK cells; assay: Colorimetric whole cell screening assay for drugs that effect APP production, secretion, or cleavage; assay type: cell-based, Human; settings: HEK cells expressing APP; 1.25 ul of 2.9 mg/mL drug in DMSO per well, approx. 18 hours; then 5 uM His-AB colloids 8-12 hours
Protocol: Human Embryonic Kidney (HEK) cells expressing the Amyloid Precursor Protein (APP) were split into the wells of a 96-well cell-culture plate and were allowed to adhere and spread. […] Positive control cells were given DMSO in place of a drug. […] Cells were allowed to grow overnight for approximately 18 hours at 37C. After 18 hours, 1.925 mL of a 30 uM solution of His-tagged AB(1-40) in phosphate buffer was mixed with 2.880 mL 40 uM NTA colloids for a resulting concentration of 12 uM His-AB. 50 ul of the AB colloid solution was added to each well of the cell-culture plate, which contained 70 ul cell culture media per well. […] The plates were incubated at 37C for 8-12 hours, or until a color change from pink to blue occurred in the positive controls.
Once the positive controls changed color from pink to blue, the wells containing drug candidates were visually examined for a color change. […] Cell death due to drug toxicity would obviously effect APP production, and may cause a well to remain pink. For this reason, all wells containing drug candidates were examined under the microscope for cell viability.

COc1cc(Cc2cnc(N)nc2N)cc(OC)c1OC [trimethoprim]
do not provide a positive result: inhibition of aggregate formation at high peptide concentration [1] | inhibition of aggregate formation at low peptide concentration [2] | effect on APP production, secretion, or cleavage (lack of color change pink to blue) [3]

From US20030060487A1, “Treatment of neurodegenerative disease” (priority 2000, published 2003)
